Measurements as given in article PMC5218480 (PLoS ONE, 2017).

Tested on: MV-4-11 cells
Assay: Gene expression microarray analysis (Affymetrix PrimeView) and GSEA
Type: cell-based, human
Design: RFU PODN (11730768_x_at) / Fold change /veh PODN (11730768_x_at) / RFU LINC00158 (11744669_a_at) / Fold change /veh LINC00158 (11744669_a_at) / RFU DUSP10 (11751237_a_at) / Fold change /veh DUSP10 (11751237_a_at) / RFU ID3 (11757404_x_at) / Fold change /veh ID3 (11757404_x_at) / RFU PLEKHG5 (11737974_s_at) / Fold change /veh PLEKHG5 (11737974_s_at) / RFU LRRC4B (11730491_at) / Fold change /veh LRRC4B (11730491_at) / RFU GIMAP4 (11747438_a_at) / Fold change /veh GIMAP4 (11747438_a_at) / RFU KRT8 (11758183_x_at) / Fold change /veh KRT8 (11758183_x_at) / RFU CNN1 (11734310_a_at) / Fold change /veh CNN1 (11734310_a_at) / RFU VPS37D (11726825_at) / Fold change /veh VPS37D (11726825_at) / RFU C10orf10 (11716522_x_at) / Fold change /veh C10orf10 (11716522_x_at) / RFU KIR2DL2 /// KIR2DL4 /// KIR2DL5A /// KIR2DL5B /// KIR2DS1 /// KIR2DS2 /// KIR2DS3 /// KIR2DS4 /// KIR3DL3 /// KIR3DL3 /// KIR3DS1 (11738374_at) / Fold change /veh KIR2DL2 /// KIR2DL4 /// KIR2DL5A /// KIR2DL5B /// KIR2DS1 /// KIR2DS2 /// KIR2DS3 /// KIR2DS4 /// KIR3DL3 /// KIR3DL3 /// KIR3DS1 (11738374_at) / RFU C1QL1 (11718748_at) / Fold change /veh C1QL1 (11718748_at) / RFU TMPRSS4 (11747572_a_at) / Fold change /veh TMPRSS4 (11747572_a_at) / RFU HAMP (11756126_x_at) / Fold change /veh HAMP (11756126_x_at) / RFU RNFT2 (11725882_a_at) / Fold change /veh RNFT2 (11725882_a_at) / RFU NR4A2 (11747474_a_at) / Fold change /veh NR4A2 (11747474_a_at) / RFU ABCC12 (11746883_a_at) / Fold change /veh ABCC12 (11746883_a_at) / RFU TMEM136 (11760407_x_at) / Fold change /veh TMEM136 (11760407_x_at) / RFU CLDN22 /// WWC2 (11732394_at) / Fold change /veh CLDN22 /// WWC2 (11732394_at) / RFU HLA-DPB1 (11760878_x_at) / Fold change /veh HLA-DPB1 (11760878_x_at) / RFU SPINT1 (11716480_a_at) / Fold change /veh SPINT1 (11716480_a_at) / RFU GAP43 (11754022_s_at) / Fold change /veh GAP43 (11754022_s_at) / RFU A4GNT (11735810_at) / Fold change /veh A4GNT (11735810_at) / RFU PRB3 (11715151_x_at) / Fold change /veh PRB3 (11715151_x_at) / RFU TUBB4B (11761932_at) / Fold change /veh TUBB4B (11761932_at) / RFU CAPN14 (11732068_a_at) / Fold change /veh CAPN14 (11732068_a_at) / RFU TMCC2 (11721928_a_at) / Fold change /veh TMCC2 (11721928_a_at) / RFU IRGQ (11745062_a_at) / Fold change /veh IRGQ (11745062_a_at) / RFU FAM174B (11720279_a_at) / Fold change /veh FAM174B (11720279_a_at) / RFU TMPRSS4 (11748680_a_at) / Fold change /veh TMPRSS4 (11748680_a_at) / RFU FAM212B (11763350_a_at) / Fold change /veh FAM212B (11763350_a_at) / RFU PLEKHG5 (11743358_a_at) / Fold change /veh PLEKHG5 (11743358_a_at) / RFU ZSCAN30 (11745921_a_at) / Fold change /veh ZSCAN30 (11745921_a_at) / RFU CMKLR1 (11741424_a_at) / Fold change /veh CMKLR1 (11741424_a_at) / RFU LOC101060620 /// MAPK8IP1 (11723275_at) / Fold change /veh LOC101060620 /// MAPK8IP1 (11723275_at) / RFU SPTSSB (11747773_x_at) / Fold change /veh SPTSSB (11747773_x_at) / RFU PRSS12 (11739890_at) / Fold change /veh PRSS12 (11739890_at) / RFU BIN1 (11741810_x_at) / Fold change /veh BIN1 (11741810_x_at) / RFU WNT11 (11732464_a_at) / Fold change /veh WNT11 (11732464_a_at) / RFU C10orf10 (11716521_a_at) / Fold change /veh C10orf10 (11716521_a_at) / RFU C5orf56 (11738089_at) / Fold change /veh C5orf56 (11738089_at) / RFU CYB561 (11721691_x_at) / Fold change /veh CYB561 (11721691_x_at) / RFU ANKRD19P (11752326_a_at) / Fold change /veh ANKRD19P (11752326_a_at) / RFU OR2T12 /// OR2T33 /// OR2T8 (11738714_s_at) / Fold change /veh OR2T12 /// OR2T33 /// OR2T8 (11738714_s_at) / RFU VCAN (11748164_a_at) / Fold change /veh VCAN (11748164_a_at) / RFU JSRP1 (11732532_at) / Fold change /veh JSRP1 (11732532_at) / RFU KRTAP10-11 (11738290_x_at) / Fold change /veh KRTAP10-11 (11738290_x_at) / RFU MYO3A (11730013_a_at) / Fold change /veh MYO3A (11730013_a_at) / RFU EBF3 (11725865_a_at) / Fold change /veh EBF3 (11725865_a_at) / RFU CAMK2N1 (11719241_x_at) / Fold change /veh CAMK2N1 (11719241_x_at) / RFU C5orf56 (11738088_a_at) / Fold change /veh C5orf56 (11738088_a_at) / RFU OLFML3 (11715873_a_at) / Fold change /veh OLFML3 (11715873_a_at) / RFU LOC100653217 /// NTM (11731650_a_at) / Fold change /veh LOC100653217 /// NTM (11731650_a_at) / RFU MAPK11 (11762145_a_at) / Fold change /veh MAPK11 (11762145_a_at) / RFU FIZ1 (11724087_x_at) / Fold change /veh FIZ1 (11724087_x_at) / RFU OASL (11726364_x_at) / Fold change /veh OASL (11726364_x_at) / RFU SOX15 (11748057_x_at) / Fold change /veh SOX15 (11748057_x_at) / RFU CD79A (11719716_a_at) / Fold change /veh CD79A (11719716_a_at) / RFU HIST1H1D (11736915_at) / Fold change /veh HIST1H1D (11736915_at) / RFU CASKIN2 (11723855_a_at) / Fold change /veh CASKIN2 (11723855_a_at) / RFU LOC730098 (11760151_x_at) / Fold change /veh LOC730098 (11760151_x_at) / RFU OR4N2 (11742367_at) / Fold change /veh OR4N2 (11742367_at) / RFU PRRT2 (11749266_a_at) / Fold change /veh PRRT2 (11749266_a_at) / RFU SNX32 (11753110_a_at) / Fold change /veh SNX32 (11753110_a_at) / RFU CDHR5 (11726645_a_at) / Fold change /veh CDHR5 (11726645_a_at) / RFU RCAN1 (11760418_a_at) / Fold change /veh RCAN1 (11760418_a_at) / RFU FAM167A (11723789_a_at) / Fold change /veh FAM167A (11723789_a_at) / RFU FAM26E (11764081_at) / Fold change /veh FAM26E (11764081_at) / RFU ISYNA1 (11749810_s_at) / Fold change /veh ISYNA1 (11749810_s_at) / RFU ACY1 (11761880_at) / Fold change /veh ACY1 (11761880_at) / RFU 11764098_at / Fold change /veh 11764098_at / RFU SAMD14 (11745864_x_at) / Fold change /veh SAMD14 (11745864_x_at) / RFU NPB (11741838_a_at) / Fold change /veh NPB (11741838_a_at) / RFU TMPRSS6 (11731388_a_at) / Fold change /veh TMPRSS6 (11731388_a_at) / RFU KRTAP10-2 (11738614_at) / Fold change /veh KRTAP10-2 (11738614_at) / RFU ARHGAP8 /// PRR5-ARHGAP8 (11727945_x_at) / Fold change /veh ARHGAP8 /// PRR5-ARHGAP8 (11727945_x_at) / RFU KRTAP5-7 /// NADSYN1 (11734609_at) / Fold change /veh KRTAP5-7 /// NADSYN1 (11734609_at) / RFU RASL12 (11751679_a_at) / Fold change /veh RASL12 (11751679_a_at) / RFU CDKN2B (11736163_a_at) / Fold change /veh CDKN2B (11736163_a_at) / RFU PRF1 (11729649_at) / Fold change /veh PRF1 (11729649_at) / RFU, ZNF638 /// ZNF638-IT1 / Fold change vs veh, ZNF638 /// ZNF638-IT1 / RFU, PANK3 / Fold change vs veh, PANK3 / RFU, SH3YL1 / Fold change vs veh, SH3YL1 / RFU, ZEB2 / Fold change vs veh, ZEB2 / RFU, NRIP1 / Fold change vs veh, NRIP1 / RFU, PTTG1IP / Fold change vs veh, PTTG1IP / RFU, CAPN2 / Fold change vs veh, CAPN2 / RFU, MED14 / Fold change vs veh, MED14 / RFU, SNORA58 / Fold change vs veh, SNORA58 / RFU, C1orf63 / Fold change vs veh, C1orf63 / RFU, LRRFIP1 / Fold change vs veh, LRRFIP1 / RFU, NDUFAF7 / Fold change vs veh, NDUFAF7 / RFU, SLC12A2 / Fold change vs veh, SLC12A2 / RFU, IBTK / Fold change vs veh, IBTK / RFU, ESF1 / Fold change vs veh, ESF1 / Fold change vs veh, TMEM50B / RFU, TAOK1 / Fold change vs veh, TAOK1 / RFU, ACBD3 / Fold change vs veh, ACBD3 / RFU, TMA16 / Fold change vs veh, TMA16 / RFU, RWDD3 / Fold change vs veh, RWDD3 / RFU, BCAT1 / Fold change vs veh, BCAT1 / RFU, EDEM3 / Fold change vs veh, EDEM3 / RFU, TMEM33 / Fold change vs veh, TMEM33 / RFU, WDR75 / Fold change vs veh, WDR75 / RFU, AHCTF1 / Fold change vs veh, AHCTF1 / RFU, TFRC / Fold change vs veh, TFRC / RFU, ZDHHC17 / Fold change vs veh, ZDHHC17 / RFU, NOM1 / Fold change vs veh, NOM1 / RFU, ARL8B / Fold change vs veh, ARL8B / RFU, ZBTB11 / Fold change vs veh, ZBTB11 / RFU, TAMM41 / Fold change vs veh, TAMM41 / RFU, KIAA1704 /// LOC100996395 / Fold change vs veh, KIAA1704 /// LOC100996395 / RFU, ING1 / Fold change vs veh, ING1 / RFU, TRMT61B / Fold change vs veh, TRMT61B / RFU, FUBP3 / Fold change vs veh, FUBP3 / RFU, TP53 / Fold change vs veh, TP53 / RFU, TNKS2 / Fold change vs veh, TNKS2 / RFU, ZFP14 / Fold change vs veh, ZFP14 / RFU, ACTR2 / Fold change vs veh, ACTR2 / RFU, PPP3R1 / Fold change vs veh, PPP3R1 / RFU, PIK3R1 / Fold change vs veh, PIK3R1 / RFU, HNRNPA1 / Fold change vs veh, HNRNPA1 / RFU, RNF170 / Fold change vs veh, RNF170 / RFU, ZNF28 / Fold change vs veh, ZNF28 / RFU, RNGTT / Fold change vs veh, RNGTT / RFU, OGT / Fold change vs veh, OGT / RFU, BRD1 / Fold change vs veh, BRD1 / RFU, MARS / Fold change vs veh, MARS / RFU, ZNF655 / Fold change vs veh, ZNF655 / RFU, FAHD1 / Fold change vs veh, FAHD1 / RFU, BDP1 / Fold change vs veh, BDP1 / RFU, LRRCC1 / Fold change vs veh, LRRCC1 / RFU, ARID1A / Fold change vs veh, ARID1A / RFU, ZNF146 / Fold change vs veh, ZNF146 / RFU, ZNF330 / Fold change vs veh, ZNF330 / RFU, GPN3 / Fold change vs veh, GPN3 / RFU, C9orf123 / Fold change vs veh, C9orf123 / RFU, N4BP2L2 / Fold change vs veh, N4BP2L2 / RFU, ARFIP1 / Fold change vs veh, ARFIP1 / RFU, FAM179B / Fold change vs veh, FAM179B / RFU, BCL10 / Fold change vs veh, BCL10 / RFU, UHRF1BP1L / Fold change vs veh, UHRF1BP1L / RFU, BET1 / Fold change vs veh, BET1 / RFU, CNOT2 / Fold change vs veh, CNOT2 / RFU, ZNF268 / Fold change vs veh, ZNF268 / Fold change vs veh, ZNF507 / RFU, DGCR2 / Fold change vs veh, DGCR2 / RFU, WDSUB1 / Fold change vs veh, WDSUB1 / Fold change vs veh, HSP90B1 /// MIR3652 / RFU, ADSS / Fold change vs veh, ADSS / RFU, GK / Fold change vs veh, GK / RFU, ZNF148 / Fold change vs veh, ZNF148 / RFU, TAF9 / Fold change vs veh, TAF9 / RFU, SLC1A5 / Fold change vs veh, SLC1A5 / RFU, SLMO2 / Fold change vs veh, SLMO2 / RFU, ABCC4 / Fold change vs veh, ABCC4 / RFU, LOC101060439 /// RAP1B / Fold change vs veh, LOC101060439 /// RAP1B / RFU, RFX7 / Fold change vs veh, RFX7 / RFU, GTPBP10 / Fold change vs veh, GTPBP10 / RFU, CNEP1R1 / Fold change vs veh, CNEP1R1 / RFU, BIVM-ERCC5 /// ERCC5 / Fold change vs veh, BIVM-ERCC5 /// ERCC5 / RFU, ILF3 / Fold change vs veh, ILF3 / RFU 11762660_at / Fold change /veh 11762660_at / RFU VCAN (11757783_s_at) / Fold change /veh VCAN (11757783_s_at) / RFU DDX43 (11728927_at) / Fold change /veh DDX43 (11728927_at) / RFU KRT8 (11758188_x_at) / Fold change /veh KRT8 (11758188_x_at) / RFU NKD1 (11759106_at) / Fold change /veh NKD1 (11759106_at) / RFU SRD5A1 (11742802_a_at) / Fold change /veh SRD5A1 (11742802_a_at) / RFU TPSAB1 /// TPSB2 (11721975_s_at) / Fold change /veh TPSAB1 /// TPSB2 (11721975_s_at) / RFU GSTM3 (11746129_a_at) / Fold change /veh GSTM3 (11746129_a_at) / RFU IL23R (11737362_x_at) / Fold change /veh IL23R (11737362_x_at) / RFU TMEM51 (11727254_a_at) / Fold change /veh TMEM51 (11727254_a_at) / RFU PIWIL2 (11732686_x_at) / Fold change /veh PIWIL2 (11732686_x_at) / RFU ORM1 (11744905_x_at) / Fold change /veh ORM1 (11744905_x_at) / RFU CCDC152 (11743942_at) / Fold change /veh CCDC152 (11743942_at) / RFU ECM1 (11717891_a_at) / Fold change /veh ECM1 (11717891_a_at) / RFU IL23R (11748794_a_at) / Fold change /veh IL23R (11748794_a_at) / RFU TNFAIP8L3 (11732012_x_at) / Fold change /veh TNFAIP8L3 (11732012_x_at) / RFU MBOAT4 (11741988_at) / Fold change /veh MBOAT4 (11741988_at) / RFU 11764193_at / Fold change /veh 11764193_at / RFU TMEM53 (11763286_at) / Fold change /veh TMEM53 (11763286_at) / RFU MAGEB2 (11727129_at) / Fold change /veh MAGEB2 (11727129_at) / RFU TMEM200A (11744735_a_at) / Fold change /veh TMEM200A (11744735_a_at) / RFU CCDC152 (11751479_a_at) / Fold change /veh CCDC152 (11751479_a_at) / RFU FAM211A (11726209_a_at) / Fold change /veh FAM211A (11726209_a_at) / RFU RGS16 (11746705_a_at) / Fold change /veh RGS16 (11746705_a_at) / RFU VCAN (11755009_s_at) / Fold change /veh VCAN (11755009_s_at) / RFU RHOB (11743442_s_at) / Fold change /veh RHOB (11743442_s_at) / RFU RGS16 (11720943_a_at) / Fold change /veh RGS16 (11720943_a_at) / RFU RGS16 (11720944_at) / Fold change /veh RGS16 (11720944_at) / RFU, VPS4B / Fold change vs veh, VPS4B / RFU, CREB1 / Fold change vs veh, CREB1 / RFU, DNAJC13 / Fold change vs veh, DNAJC13 / RFU, GNAQ / Fold change vs veh, GNAQ / RFU, CDK5R1 / Fold change vs veh, CDK5R1 / RFU, ZRANB3 / Fold change vs veh, ZRANB3 / RFU, CUL4A / Fold change vs veh, CUL4A / RFU, CCNY / Fold change vs veh, CCNY / RFU, UFL1 / Fold change vs veh, UFL1 / RFU, COG3 / Fold change vs veh, COG3 / RFU, DIAPH2 / Fold change vs veh, DIAPH2 / RFU, SKA2 / Fold change vs veh, SKA2 / RFU, AFF3 / Fold change vs veh, AFF3 / RFU, LMF1 / Fold change vs veh, LMF1 / RFU, IPO11 / Fold change vs veh, IPO11 / RFU, DFFB / Fold change vs veh, DFFB / RFU, FOXP1 / Fold change vs veh, FOXP1 / RFU, CARD8 / Fold change vs veh, CARD8 / RFU, STRN3 / Fold change vs veh, STRN3 / RFU, ADK / Fold change vs veh, ADK / RFU, RASSF2 / Fold change vs veh, RASSF2 / RFU, WIPF1 / Fold change vs veh, WIPF1 / RFU, LARP1B / Fold change vs veh, LARP1B / RFU, RASA1 / Fold change vs veh, RASA1 / RFU, RB1 / Fold change vs veh, RB1 / RFU, PPFIA1 / Fold change vs veh, PPFIA1 / RFU, MAT2A / Fold change vs veh, MAT2A / RFU, CCT5 / Fold change vs veh, CCT5 / RFU, WDR92 / Fold change vs veh, WDR92 / RFU, CUX1 / Fold change vs veh, CUX1 / RFU, TTC7A / Fold change vs veh, TTC7A / RFU, TMEM135 / Fold change vs veh, TMEM135 / RFU, DEPTOR / Fold change vs veh, DEPTOR / RFU, CPM / Fold change vs veh, CPM / RFU, DNAJB6 / Fold change vs veh, DNAJB6 / RFU, CACNA2D3 / Fold change vs veh, CACNA2D3 / RFU, DTX4 / Fold change vs veh, DTX4 / RFU, TFCP2 / Fold change vs veh, TFCP2 / RFU, GMCL1 /// GMCL1P1 / Fold change vs veh, GMCL1 /// GMCL1P1 / RFU, AEBP2 / Fold change vs veh, AEBP2 / RFU, SNHG1 /// SNORD22 /// SNORD25 /// SNORD26 /// SNORD27 /// SNORD28 /// SNORD29 /// SNORD31 / Fold change vs veh, SNHG1 /// SNORD22 /// SNORD25 /// SNORD26 /// SNORD27 /// SNORD28 /// SNORD29 /// SNORD31 / Fold change (Aza/veh), C12orf56 (ProbeSet 11735607_a_at) / Fold change (ACY-1035/veh), C12orf56 (ProbeSet 11735607_a_at) / Fold change (Aza/veh), FGFR1OP (ProbeSet 11751329_s_at) / Fold change (ACY-1035/veh), FGFR1OP (ProbeSet 11751329_s_at) / Fold change (Aza/veh), VPS36 (ProbeSet 11739960_a_at) / Fold change (ACY-1035/veh), VPS36 (ProbeSet 11739960_a_at) / RFU SYPL1 (11715823_x_at) / Fold change /veh SYPL1 (11715823_x_at) / RFU IGFBP7 (11715501_s_at) / Fold change /veh IGFBP7 (11715501_s_at) / RFU REEP3 (11722064_at) / Fold change /veh REEP3 (11722064_at) / RFU IGLL1 (11728026_x_at) / Fold change /veh IGLL1 (11728026_x_at): dose or concentration left out as unconfirmed
Conditions: ProbeSet 11716331_a_at; LIST D

Nc1ncn([C@@H]2O[C@H](CO)[C@@H](O)[C@H]2O)c(=O)n1 [azacitidine]
Fold change vs veh, DNAJB6: 0.52
